A word on the IC50: it is the midpoint of a concentration-inhibition curve. A high value points to weaker potency.

One test deals with T1, AXL (Homo sapiens, UniProt P30530).
T1 sequence (P30530 26-894): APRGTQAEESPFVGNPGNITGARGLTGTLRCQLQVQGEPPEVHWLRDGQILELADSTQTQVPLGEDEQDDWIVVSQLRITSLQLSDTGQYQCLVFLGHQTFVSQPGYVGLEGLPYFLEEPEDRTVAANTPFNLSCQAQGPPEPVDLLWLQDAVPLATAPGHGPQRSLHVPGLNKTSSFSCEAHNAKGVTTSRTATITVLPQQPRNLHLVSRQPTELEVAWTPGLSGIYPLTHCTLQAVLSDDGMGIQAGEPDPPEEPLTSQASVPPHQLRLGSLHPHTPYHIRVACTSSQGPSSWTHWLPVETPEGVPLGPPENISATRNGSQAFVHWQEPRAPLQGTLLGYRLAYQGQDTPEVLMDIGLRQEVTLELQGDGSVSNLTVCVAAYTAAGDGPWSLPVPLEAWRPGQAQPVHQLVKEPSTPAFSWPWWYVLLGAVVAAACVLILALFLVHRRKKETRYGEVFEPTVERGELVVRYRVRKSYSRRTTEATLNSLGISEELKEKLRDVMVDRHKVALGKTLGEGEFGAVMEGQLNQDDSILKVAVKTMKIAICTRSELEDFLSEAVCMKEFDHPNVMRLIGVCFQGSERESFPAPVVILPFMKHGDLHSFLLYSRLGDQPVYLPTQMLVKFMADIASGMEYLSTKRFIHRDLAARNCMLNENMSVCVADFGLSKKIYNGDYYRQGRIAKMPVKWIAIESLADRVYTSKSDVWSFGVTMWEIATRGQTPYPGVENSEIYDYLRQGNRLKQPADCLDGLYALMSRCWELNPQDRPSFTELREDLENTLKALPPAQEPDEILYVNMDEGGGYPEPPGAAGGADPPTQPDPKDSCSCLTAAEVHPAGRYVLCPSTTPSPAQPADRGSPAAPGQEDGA
The experiment in a line: kinase assay IC50 (called cell-based kinase assay in the Figure […] legend); also reduced phospho-AXL in HCC827-osi cells.

The target of test [1] is FGFR1 (fibroblast growth factor receptor 1) (Homo sapiens, UniProt P11362). Kind of test: kinase assay IC50 (called cell-based kinase assay in the Figure […] legend); also reduced phospho-FGFR1 in HCC827-osi cells.
Sequence of FGFR1 (fibroblast growth factor receptor 1) (P11362 22-822): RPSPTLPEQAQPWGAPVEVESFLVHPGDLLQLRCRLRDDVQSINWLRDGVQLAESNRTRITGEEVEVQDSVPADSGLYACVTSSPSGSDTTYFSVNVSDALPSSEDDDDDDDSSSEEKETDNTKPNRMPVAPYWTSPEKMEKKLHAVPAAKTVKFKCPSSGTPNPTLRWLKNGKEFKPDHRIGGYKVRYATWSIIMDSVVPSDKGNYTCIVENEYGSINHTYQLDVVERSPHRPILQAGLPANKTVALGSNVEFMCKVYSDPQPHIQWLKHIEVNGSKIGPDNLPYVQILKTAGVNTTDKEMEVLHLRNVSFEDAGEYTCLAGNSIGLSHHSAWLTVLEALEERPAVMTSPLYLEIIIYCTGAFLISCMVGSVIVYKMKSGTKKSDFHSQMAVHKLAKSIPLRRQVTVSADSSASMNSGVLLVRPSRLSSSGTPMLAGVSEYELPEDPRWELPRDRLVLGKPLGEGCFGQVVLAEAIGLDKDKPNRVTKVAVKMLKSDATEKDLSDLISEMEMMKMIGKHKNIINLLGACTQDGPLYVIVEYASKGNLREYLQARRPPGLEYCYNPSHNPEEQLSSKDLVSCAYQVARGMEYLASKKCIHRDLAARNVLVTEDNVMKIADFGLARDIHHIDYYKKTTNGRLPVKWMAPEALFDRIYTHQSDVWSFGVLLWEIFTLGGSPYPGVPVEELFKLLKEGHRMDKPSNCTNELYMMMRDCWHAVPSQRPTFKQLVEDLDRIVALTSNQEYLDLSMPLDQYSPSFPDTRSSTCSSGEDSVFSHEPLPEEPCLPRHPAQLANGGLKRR

For the molecule `CN1C(=O)N(c2cc(NC(=O)c3cccc(C(F)(F)F)c3)cnc2Cl)Cc2cnc(Nc3ccccc3)nc21` [AX-0085], the figures for the IC50 (at AXL; in test [1]) were 4.4 nM and 2.2 nM, respectively.

These data come from paper PMC12838157, “A Multikinase Inhibitor AX-0085 Blocks FGFR1 Activation to Overcomes Osimertinib Resistance in Non-Small Cell Lung Cancer” (Biomedicines, 2025).
